Reference: patent US8735601B2, “Pentamethine cyanine fluorescent dye with N-substituting at β-position of conjugated chain” (Dalian University of Technology, priority 2010, dated 2014)

Key:
[1] = Measurement of fluorescence quantum yield (Rhodamine B in ethanol as reference); assay type: physicochemical
[2] = Absorption and emission spectra of dyes in different solvents; assay type: physicochemical; parameters: key to Δλ1 / Δλ2: Stokes shift in nm; ε1 (molar extinction coefficient) / ε2 (molar extinction coefficient): scale not given here; settings: for Δλ1: Stokes shift to absorption peak 1; for Δλ2: Stokes shift to absorption peak 2
[3] = biological target: bovine serum albumin (BSA) (Bos taurus, UniProt P02769); test: Titration of dye solution with BSA, fluorescence and UV absorption; assay type: binding; settings: dye solution 1 μM, PBS pH 7.4
Description: (§1) The solutions of compounds Ha to IIc in a concentration of 1×10^−6M (10 mM PBS buffer (pH=7.4) was used as solvent) was prepared, and 3 ml of the each dye solution was added into a cuvette, respectively. Then, an aqueous bovine serum albumin (BSA) stock solution with the concentration of 50 μg/μL (750 μM) was added dropwise into each of the dye solution. The fluorescence intensity of the dye was measured each 5 minutes after addition of BSA for fluorescence becoming stable, on UV-visible spectrophotometer (Mode: Hp8453) and fluorescence spectrophotometer (Mode: FP-6500).
Especially for dyes IIb and IIc, the fluorescence intensity thereof was increased linearly with addition of BSA to arrive at more than 30 folds.

calf thymus DNA (ct-DNA) = test: Titration of dye solution with calf thymus DNA, fluorescence and UV absorption; assay type: binding; settings: dye 1×10^−6 M, PBS pH 7.4
Description: as §1, with “cuvette separately.” for “cuvette, respectively.”, “calf thymus DNA” for “bovine serum albumin (BSA)”, “was prepared,” for “with”, “the calf thymus DNA stock solution was determined as 1.5×10^−3 mM by the absorbance at 260 nm on UV absorption spectrophotometer. The calf thymus DNA stock solution” for “50 μg/μL (750 μM)”
From the interaction results of three dyes with calf thymus DNA, it can be known that no evident fluorescence increase was found after the interaction of the dye with the DNA. FIGS. 4 and 5 were titration figures of the interaction of dye lib with calf thymus DNA. […] All of these indicated DNA could be differentiated from protein by dyes IIa, IIb and IIc.

bovine serum albumin (BSA), sequence (P02769 25-607): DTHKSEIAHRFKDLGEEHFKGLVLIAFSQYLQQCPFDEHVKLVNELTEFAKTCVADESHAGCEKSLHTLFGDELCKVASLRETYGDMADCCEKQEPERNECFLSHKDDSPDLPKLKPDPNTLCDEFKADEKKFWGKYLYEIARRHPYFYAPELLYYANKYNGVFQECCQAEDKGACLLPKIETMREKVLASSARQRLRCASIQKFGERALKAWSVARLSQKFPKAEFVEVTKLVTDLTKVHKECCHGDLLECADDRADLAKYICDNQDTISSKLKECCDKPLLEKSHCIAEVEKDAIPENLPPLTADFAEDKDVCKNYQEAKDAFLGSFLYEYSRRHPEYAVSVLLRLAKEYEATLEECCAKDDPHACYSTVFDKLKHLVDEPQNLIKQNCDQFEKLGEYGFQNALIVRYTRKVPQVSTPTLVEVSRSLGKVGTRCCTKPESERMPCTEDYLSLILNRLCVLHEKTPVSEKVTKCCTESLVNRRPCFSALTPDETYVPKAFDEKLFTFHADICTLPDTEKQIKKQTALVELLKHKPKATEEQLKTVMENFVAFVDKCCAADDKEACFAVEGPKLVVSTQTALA

CCN1/C(=C/C=C/C(=C/C2=[N+](CC)c3ccccc3C2(C)C)NCCO)C(C)(C)c2ccccc21 [Dye IIb]
Φ1 (fluorescence quantum yield) ([1]; solvent DCM): 0.114
Φ2 (fluorescence quantum yield) ([1]; solvent DCM): 0.100
Φ1 (fluorescence quantum yield) ([1]; solvent DMSO): 0.009
Φ2 (fluorescence quantum yield) ([1]; solvent DMSO): 0.008
Φ1 (fluorescence quantum yield) ([1]; solvent Ethanol): 0.019
Φ2 (fluorescence quantum yield) ([1]; solvent Ethanol): 0.017
Φ1 (fluorescence quantum yield) ([1]; solvent Methanol): 0.009
Φ2 (fluorescence quantum yield) ([1]; solvent Methanol): 0.008
Φ1 (fluorescence quantum yield) ([1]; solvent THF): 0.085
Φ2 (fluorescence quantum yield) ([1]; solvent THF): 0.075
Φ1 (fluorescence quantum yield) ([1]; solvent Water): 0.002
Φ2 (fluorescence quantum yield) ([1]; solvent Water): 0.002
Δλ1 ([2]; solvent DCM): 79
Δλ1 ([2]; solvent DMSO): 91
Δλ1 ([2]; solvent Ethanol): 91
Δλ1 ([2]; solvent Methanol): 89
Δλ1 ([2]; solvent THF): 82
Δλ1 ([2]; solvent Water): 103
Δλ2 ([2]; solvent DCM): 167
Δλ2 ([2]; solvent DMSO): 170
Δλ2 ([2]; solvent Ethanol): 177
Δλ2 ([2]; solvent Methanol): 175
Δλ2 ([2]; solvent THF): 158
Δλ2 ([2]; solvent Water): 190
ε1 (molar extinction coefficient) ([2]; solvent DCM): 3.4 cm^−1M
ε2 (molar extinction coefficient) ([2]; solvent DCM): 1.7 cm^−1M
λabs1 ([2]; solvent DCM): 517 nm
λbs2 ([2]; solvent DCM): 429 nm
λem ([2]; solvent DCM): 596 nm
ε1 (molar extinction coefficient) ([2]; solvent DMSO): 3.0 cm^−1M
ε2 (molar extinction coefficient) ([2]; solvent DMSO): 2.3 cm^−1M
λabs1 ([2]; solvent DMSO): 515 nm
λbs2 ([2]; solvent DMSO): 436 nm
λem ([2]; solvent DMSO): 606 nm
ε1 (molar extinction coefficient) ([2]; solvent Ethanol): 3.3 cm^−1M
ε2 (molar extinction coefficient) ([2]; solvent Ethanol): 2.3 cm^−1M
λabs1 ([2]; solvent Ethanol): 521 nm
λbs2 ([2]; solvent Ethanol): 435 nm
λem ([2]; solvent Ethanol): 612 nm
ε1 (molar extinction coefficient) ([2]; solvent Methanol): 3.1 cm^−1M
ε2 (molar extinction coefficient) ([2]; solvent Methanol): 2.4 cm^−1M
λabs1 ([2]; solvent Methanol): 519 nm
λbs2 ([2]; solvent Methanol): 433 nm
λem ([2]; solvent Methanol): 608 nm
ε1 (molar extinction coefficient) ([2]; solvent THF): 3.6 cm^−1M
ε2 (molar extinction coefficient) ([2]; solvent THF): 2.2 cm^−1M
λabs1 ([2]; solvent THF): 503 nm
λbs2 ([2]; solvent THF): 427 nm
λem ([2]; solvent THF): 585 nm
ε1 (molar extinction coefficient) ([2]; solvent Water): 2.1 cm^−1M
ε2 (molar extinction coefficient) ([2]; solvent Water): 1.7 cm^−1M
λabs1 ([2]; solvent Water): 517 nm
λbs2 ([2]; solvent Water): 430 nm
λem ([2]; solvent Water): 620 nm
change of fluorescence intensity by interaction with protein (BSA) [3]: largely increased
change of fluorescence by interaction with ct-DNA (calf thymus DNA (ct-DNA)): little fluorescence increase

CCN1/C(=C/C=C/C(=C/C2=[N+](CC)c3ccccc3C2(C)C)N(CCO)CCO)C(C)(C)c2ccccc21 [Dye IIc]
Φ1 (fluorescence quantum yield) ([1]; solvent DCM): 0.124
Φ2 (fluorescence quantum yield) ([1]; solvent DCM): 0.061
Φ1 (fluorescence quantum yield) ([1]; solvent DMSO): 0.005
Φ2 (fluorescence quantum yield) ([1]; solvent DMSO): 0.005
Φ1 (fluorescence quantum yield) ([1]; solvent Ethanol): 0.014
Φ2 (fluorescence quantum yield) ([1]; solvent Ethanol): 0.013
Φ1 (fluorescence quantum yield) ([1]; solvent Methanol): 0.007
Φ2 (fluorescence quantum yield) ([1]; solvent Methanol): 0.008
Φ1 (fluorescence quantum yield) ([1]; solvent THF): 0.109
Φ2 (fluorescence quantum yield) ([1]; solvent THF): 0.099
Φ1 (fluorescence quantum yield) ([1]; solvent Water): 0.001
Φ2 (fluorescence quantum yield) ([1]; solvent Water): 0.001
Δλ1 ([2]; solvent DCM): 96
Δλ1 ([2]; solvent DMSO): 97
Δλ1 ([2]; solvent Ethanol): 97
Δλ1 ([2]; solvent Methanol): 97
Δλ1 ([2]; solvent THF): 88
Δλ1 ([2]; solvent Water): 98
Δλ2 ([2]; solvent DCM): 168
Δλ2 ([2]; solvent DMSO): 154
Δλ2 ([2]; solvent Ethanol): 167
Δλ2 ([2]; solvent Methanol): 169
Δλ2 ([2]; solvent THF): 155
Δλ2 ([2]; solvent Water): 168
ε1 (molar extinction coefficient) ([2]; solvent DCM): 2.8 cm^−1M
ε2 (molar extinction coefficient) ([2]; solvent DCM): 2.1 cm^−1M
λabs1 ([2]; solvent DCM): 526 nm
λbs2 ([2]; solvent DCM): 454 nm
λem ([2]; solvent DCM): 622 nm
ε1 (molar extinction coefficient) ([2]; solvent DMSO): 2.5 cm^−1M
ε2 (molar extinction coefficient) ([2]; solvent DMSO): 2.1 cm^−1M
λabs1 ([2]; solvent DMSO): 515 nm
λbs2 ([2]; solvent DMSO): 458 nm
λem ([2]; solvent DMSO): 612 nm
ε1 (molar extinction coefficient) ([2]; solvent Ethanol): 2.8 cm^−1M
ε2 (molar extinction coefficient) ([2]; solvent Ethanol): 2.3 cm^−1M
λabs1 ([2]; solvent Ethanol): 521 nm
λbs2 ([2]; solvent Ethanol): 451 nm
λem ([2]; solvent Ethanol): 618 nm
ε1 (molar extinction coefficient) ([2]; solvent Methanol): 3.1 cm^−1M
ε2 (molar extinction coefficient) ([2]; solvent Methanol): 2.2 cm^−1M
λabs1 ([2]; solvent Methanol): 522 nm
λbs2 ([2]; solvent Methanol): 450 nm
λem ([2]; solvent Methanol): 619 nm
ε1 (molar extinction coefficient) ([2]; solvent THF): 3.1 cm^−1M
ε2 (molar extinction coefficient) ([2]; solvent THF): 1.9 cm^−1M
λabs1 ([2]; solvent THF): 517 nm
λbs2 ([2]; solvent THF): 450 nm
λem ([2]; solvent THF): 605 nm
ε1 (molar extinction coefficient) ([2]; solvent Water): 1.8 cm^−1M
ε2 (molar extinction coefficient) ([2]; solvent Water): 1.9 cm^−1M
λabs1 ([2]; solvent Water): 517 nm
λbs2 ([2]; solvent Water): 447 nm
λem ([2]; solvent Water): 615 nm
change of fluorescence intensity by interaction with protein (BSA) [3]: largely increased
change of fluorescence by interaction with ct-DNA (calf thymus DNA (ct-DNA)): little fluorescence increase
